In patent publication US11629171B2, “Beta-hairpin peptidomimetics” (POLYPHOR AG, priority 2017, dated 2023):
≈ marks a conversion by molar mass, not a printed value. Where a SMILES comes first, the peptide text is derived from it. Bridges are numbered along the chain shown (N, C = ends). Roman numbers before positions name the chains, in order. [ ]: non-standard residue; d: D form. The star is where a group is joined. Tle = CC(C)(C)[C@H](N)C(=O)O; Hiv = CC(C)[C@H](O)C(=O)O; dDab = NCC[C@@H](N)C(=O)O; hSer = N[C@@H](CCO)C(=O)O; NHCH(CH2OH)2 = OCC(CO)N*; Orn = NCCC[C@H](N)C(=O)O; Dab = NCC[C@H](N)C(=O)O; Dap = NC[C@H](N)C(=O)O

Tests used:
Format in all cases: cell-based
[1] = test system: human red blood cells (hRBC); assay: Hemolysis; conditions: red cells of human, 1 h, 200
Procedure: The peptides were tested for their hemolytic activity against human red blood cells (hRBC). Fresh hRBC were washed four times with phosphate buffered saline (PBS) and centrifuged for 10 min at 3000×g. Compounds (200 μg/mL) were incubated with 20% hRBC (v/v) for 1 h at 37° C. and shaking at 300 rpm. A value of 0% and 100% cell lysis, respectively, was determined by incubation of hRBC in the presence of PBS containing 10% water and 2% Triton X-100 in H2O, respectively. The samples were centrifuged, the supernatants were ˜7.5-fold diluted in PBS buffer and the optical densities (OD) were measured at 540 nm and blank corrected. The 100% lysis value (OD540Triton X-100) gave an OD540 of approximately 0.5-1.0.
Percent hemolysis was calculated as follows: (OD540peptide/OD540Triton X-100)×100%.

Escherichia coli 926415 = conditions: 926415
Procedure: (§1) The in vitro antimicrobial activities of the peptides were determined in 96-well plates (Greiner, polystyrene) by the standard CLSI broth microdilution method (Clinical and Laboratory Standards Institute 2014. Performance standards for antimicrobial susceptibility testing, 24th informational supplement. Approved standard CLSI M100-S24; Clinical and Laboratory Standards Institute, Wayne, Pa.). The following microorganisms were used to determine antibiotic activity of the peptides: Escherichia coli ATCC 25922, Klebsiella pneumoniae SSI #3010^a), Acinetobacter baumannii DSM 30008, Pseudomonas aeruginosa ATCC 27853 and the clinical isolates Escherichia coli 926415^b), Klebsiella pneumoniae 968733^b), Acinetobacter baumannii 872842^b), Enterobacter cloacae 848840^b) and Escherichia coli MCR-1 Af45^c). Before preparation of inocula, Escherichia coli MCR-1 Af45 was subcultured on Mueller-Hinton II (MH-cation adjusted) agar containing 2 μg/mL colistin. ^a) Obtained from Statens Serum Institut (SSI), Copenhagen, Denmark^b) Obtained from International Health Management Associates, Inc. (IHMA Europe Sàrl), Epalinges, Switzerland^c) Obtained from Prof. Patrice Nordmann, University of Fribourg, Fribourg, Switzerland
(§2) Inocula of the microorganisms were diluted into Mueller-Hinton II (MH-cation adjusted) broth and compared with a 0.5 McFarland standard to give appr. 10^6 colony forming units (CFU)/mL. Aliquots (90 μL) of inoculum were added to 10 μL of MH-II broth+P-80 (Polysorbate 80, 0.002% final concentration, v/v) containing the peptide in serial two-fold dilutions. Antimicrobial activities of the peptides were expressed as the minimal inhibitory concentration (MIC) in μg/mL at which no visible growth was observed after 18-20 hours of incubation at 35° C.

[2] = test system: Escherichia coli ATCC 25922; conditions: ATCC 25922
Procedure: as §1, §2

[3] = test system: Acinetobacter baumannii DSM 30008; conditions: DSM 30008
Procedure: as §1, §2

[4] = test system: Klebsiella pneumoniae SSI #3010; conditions: SSI #3010
Procedure: as §1, §2

[5] = test system: Pseudomonas aeruginosa ATCC 27853; conditions: ATCC 27853
Procedure: as §1, §2

[6] = test system: Klebsiella pneumoniae 968733; conditions: 968733
Procedure: as §1, §2

[7] = test system: Acinetobacter baumannii 872842; conditions: 872842
Procedure: as §1, §2

| MIC (Escherichia coli 926415) [µg/mL] | MIC [2] [µg/mL] | MIC [3] [µg/mL] | MIC [4] [µg/mL] | MIC [5] [µg/mL] | MIC [6] [µg/mL] | MIC [7] [µg/mL] | SMILES | Hemolysis at 200 μg/mL [1] [%] |
| --- | --- | --- | --- | --- | --- | --- | --- | --- |
| 2 (≈ 0.824 µM) | 0.25 (≈ 0.103 µM) | 0.25 (≈ 0.103 µM) | 0.125 (≈ 0.0515 µM) | 0.5 (≈ 0.206 µM) | 1 (≈ 0.412 µM) | 8 (≈ 3.3 µM) | CC(=O)N[C@H](C(=O)N[C@H]1CSSC[C@@H](C(=O)N[C@H](C(N)=O)C(C)C)NC(=O)[C@H](Cc2ccc(O)cc2)NC(=O)[C@H](CO)NC(=O)[C@H](Cc2c[nH]c3ccccc23)NC(=O)[C@H](CCO)NC(=O)[C@@H](CCN)NC(=O)[C@H](CCC(=O)N[C@@H](CCN)C(=O)N[C@H](C(=O)N[C@@H](CCN)C(=O)N[C@H]2CCNC(=O)[C@H]([C@@H](C)O)NC(=O)[C@H](CCN)NC(=O)[C@H](CCN)NC(=O)[C@H](CC(C)C)NC(=O)[C@@H](CC(C)C)NC(=O)[C@H](CCN)NC2=O)[C@@H](C)O)NC(=O)[C@H](CCN)NC(=O)[C@H](CO)NC1=O)C(C)C [Ex. 68] (I: Ac-VCS[Dab]E[dDab][hSer]WSYCV-NH2 / II: [Dab]T[Dab][Dab][Dab][dL]L[Dab][Dab]T; disulfide I:2-I:11; amide I:5-II:N; lactam II:4-II:C) | <1 |
| 2 (≈ 0.843 µM) | 0.25 (≈ 0.105 µM) | 0.25 (≈ 0.105 µM) | 0.125 (≈ 0.0527 µM) | 0.25 (≈ 0.105 µM) | 8 (≈ 3.37 µM) | 2 (≈ 0.843 µM) | CC(C)C[C@@H]1NC(=O)[C@@H](CC(C)C)NC(=O)[C@H](CCN)NC(=O)[C@@H](NC(=O)[C@H](CCN)NC(=O)[C@@H](NC(=O)[C@H](CCN)NC(=O)CC[C@@H]2NC(=O)[C@H](CCN)NC(=O)[C@H](C(C)C)NC(=O)[C@@H](NC(=O)[C@@H](O)C(C)C)CSSC[C@@H](C(=O)NC(CO)CO)NC(=O)[C@H](Cc3ccc(O)cc3)NC(=O)[C@H](CO)NC(=O)[C@H](Cc3c[nH]c4ccccc34)NC(=O)[C@H](CCO)NC(=O)[C@@H](CCN)NC2=O)[C@@H](C)O)CCNC(=O)[C@H]([C@@H](C)O)NC(=O)[C@H](CCN)NC(=O)[C@H](CCN)NC1=O [Ex. 97] (I: H-[Hiv]CV[Dab]E[dDab][hSer]WSYC-{NHCH(CH2OH)2} / II: [Dab]T[Dab][Dab][Dab][dL]L[Dab][Dab]T; disulfide I:2-I:11; amide I:5-II:N; lactam II:4-II:C) | <1 |
| 1 (≈ 0.419 µM) | 0.125 (≈ 0.0524 µM) | 0.25 (≈ 0.105 µM) | 0.5 (≈ 0.209 µM) | 0.25 (≈ 0.105 µM) | 8 (≈ 3.35 µM) | 0.5 (≈ 0.209 µM) | CC(C)C[C@@H]1NC(=O)[C@@H](CC(C)C)NC(=O)[C@H](CCN)NC(=O)[C@@H](NC(=O)[C@H](CN)NC(=O)[C@@H](NC(=O)[C@H](CCN)NC(=O)CC[C@@H]2NC(=O)[C@H](CCCN)NC(=O)[C@H](CCN)NC(=O)[C@H](Cc3ccc(O)cc3)NC(=O)[C@@H](NC(=O)[C@@H](O)C(C)C)CSSC[C@@H](C(=O)NC(CO)CO)NC(=O)[C@H](C(C)(C)C)NC(=O)[C@H](CO)NC(=O)[C@H](Cc3c[nH]c4ccccc34)NC(=O)[C@H]([C@@H](C)O)NC2=O)[C@@H](C)O)CCNC(=O)[C@H]([C@@H](C)O)NC(=O)[C@H](CCN)NC(=O)[C@H](CCN)NC1=O [Ex. 162] (I: H-[Hiv]CY[Dab][Orn]ETWS[Tle]C-{NHCH(CH2OH)2} / II: [Dab]T[Dap][Dab][Dab][dL]L[Dab][Dab]T; disulfide I:2-I:11; amide I:6-II:N; lactam II:4-II:C) | <1 |
| 0.25 (≈ 0.112 µM) | 0.5 (≈ 0.223 µM) | 0.5 (≈ 0.223 µM) | 0.5 (≈ 0.223 µM) | 1 (≈ 0.447 µM) | 1 (≈ 0.447 µM) | 2 (≈ 0.893 µM) | CC(C)C[C@@H]1NC(=O)[C@H](CCN)NC(=O)[C@H](CCN)NC(=O)[C@H](CC(C)C)NC(=O)[C@@H](CC(C)C)NC(=O)[C@H](CCN)NC(=O)[C@@H](NC(=O)[C@@H](CCN)NC(=O)CC[C@@H]2NC(=O)[C@H](CCCN)NC(=O)[C@H](CCN)NC(=O)[C@H](Cc3ccc(O)cc3)NC(=O)[C@@H](NC(=O)[C@@H](O)C(C)C)CSSC[C@@H](C(=O)N[C@H](C(N)=O)[C@@H](C)O)NC(=O)[C@H](C(C)(C)C)NC(=O)[C@H](CO)NC(=O)[C@H](Cc3c[nH]c4ccccc34)NC(=O)[C@H]([C@@H](C)O)NC2=O)CCNC1=O [Ex. 164] (I: H-[Hiv]CY[Dab][Orn]ETWS[Tle]CT-NH2 / II: [dDab][Dab][Dab][dL]L[Dab][Dab]L; disulfide I:2-I:11; amide I:6-II:N; lactam II:2-II:C) | <1 |
| – | 0.125 (≈ 0.0512 µM) | 0.125 (≈ 0.0512 µM) | 0.125 (≈ 0.0512 µM) | 0.125 (≈ 0.0512 µM) | – | – | CC(=O)N[C@@H](CCN)C(=O)N[C@H](C(=O)N[C@H](C(=O)N[C@@H](Cc1ccc(O)cc1)C(=O)N[C@H]1CSSC[C@@H](C(=O)N[C@H](C(=O)N[C@@H](CCN)C(N)=O)C(C)(C)C)NC(=O)[C@H](Cc2c[nH]c3ccccc23)NC(=O)[C@H](CO)NC(=O)[C@@H](CCN)NC(=O)[C@H](CCC(=O)N[C@@H](CCN)C(=O)N[C@H](C(=O)N[C@@H](CN)C(=O)N[C@H]2CCNC(=O)[C@H]([C@@H](C)O)NC(=O)[C@H](CCN)NC(=O)[C@H](CCN)NC(=O)[C@H](CC(C)C)NC(=O)[C@@H](CC(C)C)NC(=O)[C@H](CCN)NC2=O)[C@@H](C)O)NC1=O)[C@@H](C)O)C(C)C [Ex. 218] (I: Ac-[Dab]VTYCE[dDab]SWC[Tle][Dab]-NH2 / II: [Dab]T[Dap][Dab][Dab][dL]L[Dab][Dab]T; disulfide I:5-I:10; amide I:6-II:N; lactam II:4-II:C) | <1 |
| – | 0.125 (≈ 0.0516 µM) | 0.5 (≈ 0.206 µM) | 0.125 (≈ 0.0516 µM) | 0.5 (≈ 0.206 µM) | – | – | CC(=O)N[C@H](C(=O)N[C@@H](CCN)C(=O)N[C@@H](Cc1ccc(O)cc1)C(=O)N[C@@H](CN)C(=O)N[C@@H](CCC(=O)N[C@@H](CCN)C(=O)N[C@H](C(=O)N[C@@H](CN)C(=O)N[C@H]1CCNC(=O)[C@H]([C@@H](C)O)NC(=O)[C@H](CCN)NC(=O)[C@H](CCN)NC(=O)[C@H](CC(C)C)NC(=O)[C@@H](CC(C)C)NC(=O)[C@H](CCN)NC1=O)[C@@H](C)O)C(=O)N[C@H](CCN)C(=O)N[C@@H](CO)C(=O)N[C@@H](Cc1c[nH]c2ccccc12)C(=O)N[C@@H](CO)C(=O)N[C@H](C(=O)N[C@@H](CCC(=O)O)C(=O)N[C@@H](CO)C(N)=O)C(C)(C)C)C(C)C [Ex. 229] (I: Ac-V[Dab]Y[Dap]E[dDab]SWS[Tle]ES-NH2 / II: [Dab]T[Dap][Dab][Dab][dL]L[Dab][Dab]T; amide I:5-II:N; lactam II:4-II:C) | 2 |
| – | 0.25 (≈ 0.103 µM) | 1 (≈ 0.41 µM) | 0.5 (≈ 0.205 µM) | 1 (≈ 0.41 µM) | – | – | CC(=O)N[C@H](C(=O)N[C@H](C(=O)N[C@@H](Cc1ccc(O)cc1)C(=O)N[C@@H](CCN)C(=O)N[C@@H](CCC(=O)N[C@@H](CCN)C(=O)N[C@H](C(=O)N[C@@H](CN)C(=O)N[C@H]1CCNC(=O)[C@H]([C@@H](C)O)NC(=O)[C@H](CCN)NC(=O)[C@H](CCN)NC(=O)[C@H](CC(C)C)NC(=O)[C@@H](CC(C)C)NC(=O)[C@H](CCN)NC1=O)[C@@H](C)O)C(=O)N[C@H](CCN)C(=O)N[C@H](C(=O)N[C@@H](Cc1c[nH]c2ccccc12)C(=O)N[C@@H](CCC(=O)O)C(=O)N[C@H](C(=O)N[C@@H](C)C(=O)N[C@@H](CO)C(N)=O)C(C)(C)C)[C@@H](C)O)[C@@H](C)O)C(C)C [Ex. 230] (I: Ac-VTY[Dab]E[dDab]TWE[Tle]AS-NH2 / II: [Dab]T[Dap][Dab][Dab][dL]L[Dab][Dab]T; amide I:5-II:N; lactam II:4-II:C) | <1 |
